Experimental data published in US20080261994A1, “CYCLOPROPANE COMPOUNDS AND PHARMACEUTICAL USE THEREOF” (Japan Tobacco Inc., priority 2003, published 2008).
Read-outs that look alike come from different tables or passages of the source.

Legend:
Type in all cases: biochemical
aggrecanase-1 = biological target: T1, aggrecanase-1 (Homo sapiens, UniProt O75173); assay: Aggrecanase-1 inhibitory action (Particle Assay, GAG release from aggrecan-containing polyacrylamide particles)
T1 sequence (O75173 213-837): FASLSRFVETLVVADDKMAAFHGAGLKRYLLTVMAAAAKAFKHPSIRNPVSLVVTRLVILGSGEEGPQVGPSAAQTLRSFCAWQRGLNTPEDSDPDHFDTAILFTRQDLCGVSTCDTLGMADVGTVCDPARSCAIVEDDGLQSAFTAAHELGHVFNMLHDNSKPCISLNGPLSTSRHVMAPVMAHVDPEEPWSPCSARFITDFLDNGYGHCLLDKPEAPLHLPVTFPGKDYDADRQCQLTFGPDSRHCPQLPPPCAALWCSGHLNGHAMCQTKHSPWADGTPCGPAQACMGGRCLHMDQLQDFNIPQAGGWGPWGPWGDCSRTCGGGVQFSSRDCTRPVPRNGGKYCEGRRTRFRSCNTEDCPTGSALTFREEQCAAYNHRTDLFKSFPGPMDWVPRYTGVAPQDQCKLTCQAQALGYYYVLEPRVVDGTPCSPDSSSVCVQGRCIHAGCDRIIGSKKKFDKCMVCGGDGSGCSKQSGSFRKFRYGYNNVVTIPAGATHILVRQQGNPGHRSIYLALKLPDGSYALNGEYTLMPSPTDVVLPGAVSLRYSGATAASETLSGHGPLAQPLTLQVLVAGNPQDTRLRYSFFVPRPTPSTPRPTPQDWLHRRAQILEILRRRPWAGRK
In short: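 Readout was dimethylmethylene blue absorbance (595 nm) of glycosaminoglycan liberated into supernatant, calibrated with whale chondroitin sulfate. Substrate was aggrecan in polyacrylamide particles, digested 15 h at 37° C in Tris-HCl; TC50 (μM) derived from inhibition relative to no-enzyme and no-inhibitor controls.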

MMP-1 = biological target: T2, MMP-1 (Homo sapiens, UniProt P03956); assay: MMP-1 inhibitory action (Type I collagen Activity Measurement kit, FITC-labeled collagen type I)
T2 sequence (P03956 100-469): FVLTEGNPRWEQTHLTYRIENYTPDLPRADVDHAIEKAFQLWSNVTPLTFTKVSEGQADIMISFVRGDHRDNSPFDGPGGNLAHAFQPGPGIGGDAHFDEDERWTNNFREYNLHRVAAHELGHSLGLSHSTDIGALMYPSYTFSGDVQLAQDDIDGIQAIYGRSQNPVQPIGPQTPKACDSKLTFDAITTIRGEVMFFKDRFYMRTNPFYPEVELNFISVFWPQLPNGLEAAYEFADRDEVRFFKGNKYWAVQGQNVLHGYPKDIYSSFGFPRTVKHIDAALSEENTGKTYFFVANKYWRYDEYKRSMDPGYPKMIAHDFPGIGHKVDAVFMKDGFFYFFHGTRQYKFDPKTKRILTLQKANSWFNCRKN

Recombinant Human MMP-13 = biological target: T3, Recombinant Human MMP-13 (Homo sapiens, UniProt P45452); assay: MMP-13 inhibitory activity (MMP-13 specific fluorescent substrate with quencher)
T3 construct: purchased R&D systems 511-MM
In short: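 IC50 (μM) derived from % inhibition, normalised to wells without enzyme and without inhibitor, fluorescence read at 325/405 nm. Enzyme and compound preceded addition of the quenched 7-MCA…DPA substrate; Tris-HCl buffer, 25 °C for 1 h, acetic-acid stop.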

[1] = Experimental Example 1, read-out: IC50 AG1
[2] = Experimental Example 2, read-out: IC50 MMP1
[3] = Experimental Example 3, read-out: IC50 MMP13
[4] = aggrecanase-1 inhibitory action, read-out: IC50 AG1 (Experimental Example 1)
[5] = MMP-1 inhibitory action, FITC-labeled collagen type I, 37° C. for 3 hr, read-out: IC50 MMP1 (Experimental Example 2)
[6] = Recombinant Human MMP-13, fluorescent substrate, 25° C. for 1 h, read-out: IC50 MMP13 (Experimental Example 3)

SMILES | IC50 (aggrecanase-1; [1]) | IC50 (MMP-1; [2]) | IC50 (Recombinant Human MMP-13; [3]) | IC50 (aggrecanase-1; [4]) | IC50 (MMP-1; [5]) | IC50 (Recombinant Human MMP-13; [6])
O=C(O)C1(NS(=O)(=O)c2ccc(OCc3ccc(Cl)cc3Cl)cc2)C2CCc3ccccc3C21 (stereo not drawn) [Example 2-355] | ≥ 1000 nM | ≥ 1000 nM | < 1000 nM | – | – | –
CC1[C@H](c2ccccc2)[C@]1(NS(=O)(=O)N1CCC(OCc2cccc(Cl)c2)C1)C(=O)O (stereo partly drawn) [Example 2-549] | ≥ 1000 nM | ≥ 1000 nM | ≥ 1000 nM | – | – | –
COc1ccc(-c2ccc(S(=O)(=O)N[C@@]3(C(=O)O)C[C@]3(C)c3ccccc3)s2)cc1Cl [Example 2-595] | ≥ 1000 nM | ≥ 1000 nM | < 100 nM | – | – | –
CCNC(=O)N1CCN(S(=O)(=O)N[C@@]2(C(=O)O)C[C@@H]2c2ccccc2)CC1 [Example 2-512] | ≥ 1000 nM | ≥ 1000 nM | ≥ 1000 nM | – | – | –
C[C@]1(c2ccccc2)C[C@@]1(NS(=O)(=O)c1ccc(-c2ccc(C(F)(F)F)cc2)s1)C(=O)O [Example 2-572] | < 100 nM | ≥ 1000 nM | < 100 nM | – | – | –
NCC1(c2ccccc2)CC1(NS(=O)(=O)c1ccc(-c2ccc(Cl)cc2)s1)C(=O)O (stereo not drawn) [Example 2-361] | ≥ 1000 nM | ≥ 10000 nM | ≥ 1000 nM | – | – | –
O=C(NO)C1(NS(=O)(=O)c2ccc(-c3ccc(Cl)cc3)s2)C2Cc3ccccc3C21 (stereo not drawn) [Example 2-447] | < 1000 nM | < 1000 nM | < 100 nM | – | – | –
CC(=O)N1Cc2ccccc2C2(C1)CC2(NS(=O)(=O)c1ccc(-c2ccc(Cl)cc2)s1)C(=O)O (stereo not drawn) [Example 2-207] | – | – | – | < 1000 nM | ≥ 10000 nM | < 1000 nM
O=C(O)COc1cccc(C2CC2(NS(=O)(=O)c2ccc(-c3ccc(Cl)cc3)cc2)C(=O)O)c1 (stereo not drawn) [Example 1-119] | – | – | – | < 100 nM | ≥ 1000 nM | < 100 nM
Cc1ncc(-c2ccc(S(=O)(=O)NC3(C(=O)O)CC3c3ccccc3)s2)o1 (stereo not drawn) [Example 2-79] | – | – | – | ≥ 10000 nM | ≥ 10000 nM | ≥ 10000 nM
O=C(O)C1(NS(=O)(=O)c2ccc(-c3cc(C(F)(F)F)on3)s2)CC1c1ccccc1CCO (stereo not drawn) [Example 2-240] | – | – | – | < 1000 nM | ≥ 1000 nM | < 1000 nM
C=CC1CC1(NS(=O)(=O)c1ccc(-c2ccc(Cl)cc2)s1)C(=O)O (stereo not drawn) [Example 2-46] | – | – | – | ≥ 1000 nM | ≥ 10000 nM | ≥ 1000 nM
CC1C(NS(=O)(=O)c2ccc(-c3cc(C(F)(F)F)on3)s2)(C(=O)O)C1(C)c1ccccc1 (stereo not drawn) [Example 2-598] | < 100 nM | ≥ 1000 nM | < 1000 nM | – | – | –
CC1C(NS(=O)(=O)c2ccc(-c3cc(C(F)(F)F)on3)s2)(C(=O)O)C1(C)c1ccccc1 (stereo not drawn) [Example 2-597] | ≥ 1000 nM | ≥ 1000 nM | ≥ 10000 nM | – | – | –
CC1[C@H](c2ccccc2)[C@]1(NS(=O)(=O)N1CCN(c2ccncc2)CC1)C(=O)O (stereo partly drawn) [Example 2-533] | ≥ 1000 nM | ≥ 1000 nM | ≥ 1000 nM | – | – | –
O=C(NCC1(c2ccccc2)CC1(NS(=O)(=O)c1ccc(-c2ccc(Cl)cc2)s1)C(=O)O)c1cccnc1 (stereo not drawn) [Example 2-394] | < 1000 nM | ≥ 1000 nM | < 100 nM | – | – | –
CCNC(=O)c1ccc(S(=O)(=O)NC2(C(=O)O)CC2c2ccccc2)s1 (stereo not drawn) [Example 2-104] | – | – | – | ≥ 10000 nM | ≥ 10000 nM | ≥ 10000 nM

SMILES | IC50 (aggrecanase-1; [1]) | IC50 (MMP-1; [2]) | IC50 (Recombinant Human MMP-13; [3]) | IC50 (aggrecanase-1; [4]) | IC50 (MMP-1; [5]) | IC50 (Recombinant Human MMP-13; [6])
O=C(c1cccc(Cl)c1)N1CCN(S(=O)(=O)NC2(C(=O)O)CC2c2ccccc2)CC1 (stereo not drawn) [Example 2-160] | – | – | – | ≥ 10000 nM | ≥ 10000 nM | ≥ 10000 nM
O=C(O)C1(NS(=O)(=O)c2ccc(-c3cc(C(F)(F)F)on3)s2)C2Cc3ccccc3C21 (stereo not drawn) [Example 2-277] | < 1000 nM | ≥ 1000 nM | < 1000 nM | – | – | –
O=C(O)C1(NS(=O)(=O)c2ccc(-c3cc(C(F)(F)F)on3)s2)CC1c1ccccc1CCCO (stereo not drawn) [Example 2-252] | – | – | – | < 100 nM | ≥ 1000 nM | < 1000 nM
O=C(O)C1(NS(=O)(=O)c2ccc(-c3cc(C(F)(F)F)on3)s2)C2CCC(O)c3ccccc3C21 (stereo not drawn) [Example 2-438] | < 100 nM | < 1000 nM | < 100 nM | – | – | –
O=C(O)[C@]1(NS(=O)(=O)c2ccc(-c3cc(C(F)F)on3)cc2)C[C@@H]1c1ccccc1 [Example 2-152] | – | – | – | < 1000 nM | ≥ 10000 nM | < 100 nM
C[C@]1(c2ccccc2)C[C@@]1(NS(=O)(=O)c1ccc(-c2ccc(Cl)c(F)c2)s1)C(=O)O [Example 2-434] | < 100 nM | ≥ 1000 nM | < 1000 nM | – | – | –
O=C(O)[C@@]1(NS(=O)(=O)c2ccc3c(c2)Cc2cc(Br)ccc2-3)C[C@H]1c1ccccc1 [Example 1-109] | – | – | – | < 1000 nM | ≥ 10000 nM | < 1000 nM
O=C(O)C1(NS(=O)(=O)c2ccc(-c3ccc(Cl)cc3)s2)CC1(CSCCO)c1ccccc1 (stereo not drawn) [Example 2-345] | < 100 nM | ≥ 10000 nM | < 1000 nM | – | – | –
O=C(O)[C@@]1(NS(=O)(=O)c2ccc(-c3ccc(Cl)cc3)s2)C[C@H]1c1ccccc1 [Example 2-192] | – | – | – | < 1000 nM | ≥ 10000 nM | < 1000 nM
O=C(NO)C1(NS(=O)(=O)c2ccc(-c3cc(C(F)(F)F)on3)s2)C2CCc3ccccc3C21 (stereo not drawn) [Example 2-486] | < 1000 nM | < 1000 nM | < 100 nM | – | – | –
CN(C)CCSCC1(c2ccccc2)CC1(NS(=O)(=O)c1ccc(-c2ccc(Cl)cc2)s1)C(=O)O (stereo not drawn) [Example 2-337] | < 1000 nM | ≥ 10000 nM | < 1000 nM | – | – | –
O=C(NCCO)OCC1(c2ccccc2)CC1(NS(=O)(=O)c1ccc(-c2cc(C(F)(F)F)on2)s1)C(=O)O (stereo not drawn) [Example 2-333] | < 1000 nM | ≥ 1000 nM | < 1000 nM | – | – | –
O=C(NCCc1cccc(C2CC2(NS(=O)(=O)c2ccc(-c3cc(C(F)(F)F)on3)s2)C(=O)O)c1)N1CCOCC1 (stereo not drawn) [Example 2-259] | – | – | – | < 100 nM | ≥ 1000 nM | < 100 nM
C[C@]1(c2ccccc2)C[C@@]1(NS(=O)(=O)c1ccc(-c2ccc3c(c2)OCO3)s1)C(=O)O [Example 2-449] | < 100 nM | ≥ 1000 nM | < 100 nM | – | – | –
CC1[C@H](c2ccccc2)[C@]1(NS(=O)(=O)c1ccc(-c2ccc(Cl)cn2)s1)C(=O)O (stereo partly drawn) [Example 2-366] | < 100 nM | < 1000 nM | < 100 nM | – | – | –
O=C(O)C1(NS(=O)(=O)c2ccc(-c3ccc(Cl)cc3)s2)C2CCC(O)c3ccccc3C21 (stereo not drawn) [Example 2-411] | < 100 nM | < 1000 nM | < 100 nM | – | – | –
